Consider 19 compounds from US20240158368A1, “Pyrrolidine Main Protease Inhibitors as Antiviral Agents” (AbbVie Inc., priority 2022, published 2024).

Where two headings read alike, the source gives them in different places.

Data set [1] has as its target OC43 Mpro (Human coronavirus OC43 (HCoV-OC43), UniProt P0C6X6). The data set is classed as biochemical.
For data set [2], the target named is SARS-CoV-1 Mpro (Severe acute respiratory syndrome coronavirus (SARS-CoV), UniProt P0C6X7). It counts as biochemical.
Data set [3] in a line: in vitro. Particulars: human, microsomes, pH 7.4.
Data set [4] is described as follows: in vitro. To be noted: PAMPA.
The nature of data set [5]: in vitro. Particulars: rat, microsomes, pH 7.4.
For data set [6], the target named is MERS Mpro (Middle East respiratory syndrome-related coronavirus (isolate United Kingdom/H123990006/2012) (MERS-CoV) (Betacoronavirus England 1), UniProt K9N7C7). The data set can be described thus: biochemical.
Data set [7] deals with 229E Mpro (Human coronavirus 229E (HCoV-229E), UniProt P0C6X1). It counts as biochemical.
Data set [8] has as its system SARS-CoV-2 (strain USA-WA1/2020). Nature of the data set: microbe, parasite or virus in culture. It counts as cell-based.
For data set [9], the target named is SARS-CoV-2 Mpro (Severe acute respiratory syndrome coronavirus 2 (2019-nCoV) (SARS-CoV-2), UniProt P0DTD1). It counts as biochemical.
Where [10] appears, read: Severe acute respiratory syndrome coronavirus 2, HeLa-ACE2 cells, read-out: Antiviral CoV-2 EC50.

Chain of MERS Mpro (K9N7C7 3248-3553 limits assumed): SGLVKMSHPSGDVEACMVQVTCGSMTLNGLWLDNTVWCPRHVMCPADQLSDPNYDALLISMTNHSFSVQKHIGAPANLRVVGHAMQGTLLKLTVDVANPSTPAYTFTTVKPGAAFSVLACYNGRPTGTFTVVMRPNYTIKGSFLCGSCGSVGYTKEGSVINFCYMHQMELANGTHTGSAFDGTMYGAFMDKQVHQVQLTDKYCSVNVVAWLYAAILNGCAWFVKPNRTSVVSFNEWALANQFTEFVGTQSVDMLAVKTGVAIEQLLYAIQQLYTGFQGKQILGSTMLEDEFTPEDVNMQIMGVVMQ
Chain of OC43 Mpro (P0C6X6 3247-3549 limits assumed): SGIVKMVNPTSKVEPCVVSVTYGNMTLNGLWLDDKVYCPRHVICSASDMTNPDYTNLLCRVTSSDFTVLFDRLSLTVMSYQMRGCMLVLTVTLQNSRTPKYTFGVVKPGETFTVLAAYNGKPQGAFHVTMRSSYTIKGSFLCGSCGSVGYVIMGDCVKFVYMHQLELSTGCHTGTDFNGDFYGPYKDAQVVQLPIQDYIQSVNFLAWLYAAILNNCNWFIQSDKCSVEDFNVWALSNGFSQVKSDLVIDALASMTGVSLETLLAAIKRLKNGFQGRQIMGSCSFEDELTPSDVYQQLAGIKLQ
Chain of 229E Mpro (P0C6X1 2966-3267 limits assumed): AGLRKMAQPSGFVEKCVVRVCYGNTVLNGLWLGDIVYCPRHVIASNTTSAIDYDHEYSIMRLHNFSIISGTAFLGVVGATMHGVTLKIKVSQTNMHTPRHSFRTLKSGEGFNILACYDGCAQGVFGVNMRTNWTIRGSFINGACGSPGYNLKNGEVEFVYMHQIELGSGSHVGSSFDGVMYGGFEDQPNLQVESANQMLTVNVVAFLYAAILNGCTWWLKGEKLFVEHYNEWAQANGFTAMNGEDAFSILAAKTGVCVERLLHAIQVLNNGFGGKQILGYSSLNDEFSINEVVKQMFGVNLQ

With `O=C(N[C@@H]1CCN(c2c(C(=O)N3CC4(COC4)C3)cc(Br)cc2C(F)(F)F)C1)c1cc(=O)[nH]c2c(F)cccc12` [Compound 73], the EC50 (in general, the concentration that produces a half-maximal response) was determined as 1.13 nM in data set [1]; 3.84 nM in data set [2]; 1.69 nM in data set [6]; 5.79 nM in data set [7]; 0.0123 µM in [8] (setting [10]); 0.53 nM in data set [9]. Besides, the CLint scaled (usually the rate of metabolic loss divided by the concentration) in data set [3] is 117 mL/min/kg; in data set [5] it was 327 mL/min/kg. In addition, in data set [4], the Papp (as a rule, a coefficient for how fast a substance crosses the barrier) is 11.7 ×10⁻⁶ cm/s.

On to `NC(=O)c1cc(C(=O)N2CCOCC2)c(N2CC[C@@H](NC(=O)c3cc(=O)[nH]c4c(F)cccc34)C2)c(C(F)(F)F)c1` [Compound 35], for which the EC50 in data set [1] is 16.5 nM; in [2], 2.45 nM; in [6], 0.93 nM; in data set [7], 2.6 nM; in [9] it was 0.53 nM. The CLint scaled was below 28.3 mL/min/kg in [3] and 46.7 mL/min/kg in data set [5]. Moreover, the Papp in data set [4] stood at 0.1 ×10⁻⁶ cm/s.

For the compound `CO[C@H]1CN(c2c(C(=O)N3CCOCC3)cc(C#N)cc2C(F)(F)F)C[C@@H]1NC(=O)c1cc(=O)[nH]c2c(F)cccc12` [Compound 32], the EC50 in data set [1] worked out at 1.17 nM; in [6], 1.06 nM; in data set [7] it was 1.78 nM; in [8] (setting [10]) it was 0.0186 µM; in [9] it was 0.45 nM. Also, the results for the CLint scaled in [3] and in [5] were 48.3 mL/min/kg and below 70 mL/min/kg, respectively. Further, the Papp in [4] is 7.29 ×10⁻⁶ cm/s.

On to `N#Cc1cc(C(=O)N2CCOCC2)c(N2CC[C@@H](NC(=O)c3cc(=O)[nH]c4c(F)cccc34)C2)c(C2CC2)c1` [Compound 40], for which the EC50 was determined as 0.55 nM in data set [1]; 0.89 nM in data set [6]; 2.47 nM in data set [7]; 0.005 µM in data set [8] (setting [10]); 0.42 nM in data set [9]. Moreover, the CLint scaled in [3] was below 28.3 mL/min/kg; in data set [5], 220 mL/min/kg. In [4], this compound displayed a Papp of 5.15 ×10⁻⁶ cm/s.

With `Cc1cc(C(=O)N2CCOCC2)c(N2CC[C@@H](NC(=O)c3cc(C)[nH]c(=O)c3F)C2)c(C2CC2)c1` [Compound 60], the EC50 stood at 1.22 nM in data set [1]; 0.74 nM in data set [2]; 1.4 nM in data set [6]; 5.14 nM in data set [7]; 0.18 µM in data set [8] (setting [10]); 0.48 nM in data set [9]. Further, the CLint scaled in data set [3] was 66.7 mL/min/kg. This compound also returned a Papp in data set [4] of 2.95 ×10⁻⁶ cm/s.

Take `O=C(N[C@@H]1CCN(c2c(C(=O)N3CC4CC(C3)O4)cc(Br)cc2C(F)(F)F)C1)c1cc(=O)[nH]c2c(F)cccc12` [Compound 65]: the EC50 was 1.29 nM in data set [1]; 1.86 nM in [2]; 1.54 nM in [6]; 2.76 nM in [7]; 0.0092 µM in data set [8] (Severe acute respiratory syndrome coronavirus 2, HeLa-ACE2, read-out: Antiviral CoV-2 EC50 (μM)); 0.42 nM in [9]. The results for the CLint scaled in data set [3] and in data set [5] were 93.3 mL/min/kg and 258 mL/min/kg, respectively. The Papp in [4] worked out at 16 ×10⁻⁶ cm/s.

As for `N#Cc1cc(C(=O)N2CCOCC2)c(N2CC[C@@H](NC(=O)c3c(F)c(=O)[nH]c4ccccc34)C2)c(C(F)(F)F)c1` [Compound 6], the EC50 in [1] came to 1.44 nM; in data set [6], 2.51 nM; in [7], 2.32 nM; in data set [8] (setting [10]), 0.0219 µM; in [9], 0.78 nM. Further, the values for the CLint scaled in [3] and in data set [5] were below 35 mL/min/kg and 81.7 mL/min/kg, respectively. The Papp in [4] came to 3.22 ×10⁻⁶ cm/s.

Consider `O=C(N[C@@H]1CCN(c2c(C(=O)N3CCOCC3)cc(Br)cc2C(F)(F)F)C1)c1cc(=O)[nH]c2c(F)ccc(F)c12` [Compound 52], for which the EC50 amounted to 0.84 nM in data set [1]; 1.03 nM in data set [6]; 3.58 nM in [7]; 0.009 µM in [8] (setting [10]); 0.43 nM in [9]. The CLint scaled in data set [3] was 183 mL/min/kg; in data set [5], 452 mL/min/kg. In data set [4], this compound came in with a Papp of 12.6 ×10⁻⁶ cm/s.

Turning to `O=C(N[C@@H]1CCN(c2c(C(=O)N3CCN4CCOCC4C3)cc(Br)cc2C(F)(F)F)C1)c1cc(=O)[nH]c2c(F)cccc12` (stereo partly shown) [Compound 71], the concentration giving a half-maximal response (EC50) is 0.66 nM in [1]; 1.94 nM in [2]; 0.78 nM in data set [6]; 3.84 nM in data set [7]; 0.42 nM in data set [9]. Also, the CLint scaled in data set [3] was 423 mL/min/kg; in [5], 358 mL/min/kg. The compound also gave an apparent permeability (Papp) in [4] of 18.8 ×10⁻⁶ cm/s.

In the case of `N#Cc1cc(C(=O)N2CCOCC2)c(N2CC[C@@H](NC(=O)c3c(F)c(=O)[nH]c4c(F)cccc34)C2)c(C(F)F)c1` [Compound 39], the EC50 in data set [1] was 1.05 nM; in data set [2] it was 2.56 nM; in data set [6], 1.12 nM; in data set [7], 3.45 nM; in data set [8] (setting [10]) it was 0.0189 µM; in [9] it was 0.42 nM. Moreover, the values for the CLint scaled in data set [3] and in [5] were below 25 mL/min/kg and below 41.7 mL/min/kg, respectively. Further, the Papp in data set [4] is 4.71 ×10⁻⁶ cm/s.

Take `O=C(N[C@@H]1CCN(c2c(C(=O)N3CCOCC3)cc(Br)cc2C(F)F)C1)c1c(F)c(=O)[nH]c2c(F)cccc12` [Compound 54]: the EC50 in data set [1] worked out at 0.42 nM; in [6], 1.12 nM; in data set [7], 4.72 nM; in data set [8] (setting [10]), 0.005 µM; in data set [9], 0.43 nM. In addition, the CLint scaled was 140 mL/min/kg in data set [3] and 257 mL/min/kg in data set [5]. This compound also displayed a Papp in data set [4] of 13.1 ×10⁻⁶ cm/s.

For the compound `Cc1cc(C(=O)N[C@@H]2CCN(c3c(C(=O)N4CCOCC4)cc(Br)cc3C(F)(F)F)C2)c(F)c(=O)[nH]1` [Compound 3, (R)—N-(1-(4-bromo-2-(morpholine-4-carbonyl)-6-(trifluoromethyl)phenyl)pyrrolidin-3-yl)-3-fluoro-6-methyl-2-oxo-1,2-dihydropyridine-4-carboxamide], the EC50 was 3.88 nM in data set [1]; 0.97 nM in [2]; 1.23 nM in data set [6]; 12.9 nM in data set [7]; 0.0203 µM in data set [8] (setting [10]); 0.63 nM in [9]. For the same compound, the values for the CLint scaled in data set [3] and in [5] were below 36.7 mL/min/kg and below 60 mL/min/kg, respectively. This compound also registered a Papp in data set [4] of 5.84 ×10⁻⁶ cm/s.

Regarding `COCCN1CCN(C(=O)c2cc(Br)cc(C(F)(F)F)c2N2CC[C@@H](NC(=O)c3cc(=O)[nH]c4c(F)cccc34)C2)CC1` [Compound 67], the EC50 in [1] came out at 1.52 nM; in data set [2], 2.56 nM; in data set [6], 1.5 nM; in [7], 4.22 nM; in [9], 0.5 nM. Moreover, the CLint scaled in [3] is 313 mL/min/kg; in data set [5], 1180 mL/min/kg. In data set [4], this compound registered a Papp of 16.3 ×10⁻⁶ cm/s.

On to `CN1CCN(C(=O)c2cc(Cl)cc(C(F)(F)F)c2N2CC[C@@H](NC(=O)c3cc(=O)[nH]c4c(F)cccc34)C2)CC1` [Compound 37], for which the EC50 in [1] came out at 1 nM; in data set [2], 1.68 nM; in data set [6] it was 1.22 nM; in data set [7] it was 2.53 nM; in [8] (setting [10]) it was 0.0288 µM; in [9], 0.63 nM. The CLint scaled was 150 mL/min/kg in [3] and 423 mL/min/kg in [5]. Besides, the Papp in data set [4] is 6.23 ×10⁻⁶ cm/s.

For the compound `Cc1[nH]c(=O)cc(C(=O)N[C@@H]2CCN(c3c(C(=O)N4CCOCC4)cc(Br)cc3C(F)(F)F)C2)c1F` [Compound 59], the EC50 in data set [1] was found to be 6.09 nM; in data set [6] it was 1.01 nM; in data set [7] it was 20.4 nM; in [8] (setting [10]), 0.0956 µM; in data set [9], 1.11 nM. The CLint scaled is below 61.7 mL/min/kg in data set [3] and below 68.3 mL/min/kg in [5]. The compound further came in with a Papp in data set [4] of 8.24 ×10⁻⁶ cm/s.

For `O=C(N[C@@H]1CCN(c2c(OC(F)F)cc(Cl)cc2C(=O)N2CCOCC2)C1)c1cc(=O)[nH]c2c(F)cccc12` [Compound 43], the EC50 was 3.17 nM in [1]; 1.41 nM in data set [6]; 15 nM in data set [7]; 0.0247 µM in data set [8] (setting [10]); 0.46 nM in data set [9]. The CLint scaled is 100 mL/min/kg in data set [3] and 312 mL/min/kg in data set [5]. In data set [4], this compound came in with a Papp of 12.7 ×10⁻⁶ cm/s.

For `Cc1cc(C(=O)N[C@@H]2CCN(c3c(C(=O)N4CCOCC4)cc(C#N)cc3C(F)(F)F)C2)c(F)c(=O)[nH]1` [Compound 10], the EC50 is 12 nM in data set [1]; 1.5 nM in data set [6]; 7.63 nM in data set [7]; 0.589 µM in data set [8] (setting [10]); 0.54 nM in [9]. Moreover, the CLint scaled is below 30 mL/min/kg in data set [3] and below 50 mL/min/kg in data set [5]. The Papp in data set [4] is 0.7 ×10⁻⁶ cm/s.

As for `N#Cc1cc(C(=O)N2CCOCC2)c(N2C[C@H](NC(=O)c3cc(=O)[nH]c4c(F)cc(F)cc34)CC2=O)c(C(F)(F)F)c1` [Compound 33], the EC50 was found to be 171 nM in data set [1]; 2.49 nM in data set [6]; 38.5 nM in [7]; 0.174 µM in data set [8] (setting [10]); 0.92 nM in data set [9]. Further, the CLint scaled in data set [3] is below 35 mL/min/kg; in data set [5], below 56.7 mL/min/kg. The Papp in data set [4] is 1.12 ×10⁻⁶ cm/s.

For `N#Cc1cc(C(=O)N2CCOCC2)c(N2CC[C@@H](NC(=O)c3cc(=O)[nH]c4c(F)cc(F)cc34)C2)c(C(F)(F)F)c1` [Compound 7], the EC50 came out at 4.95 nM in data set [1]; 0.99 nM in [6]; 2.76 nM in [7]; 0.0256 µM in [8] (setting [10]); 0.43 nM in data set [9]. Further, the results for the CLint scaled in [3] and in [5] were below 35 mL/min/kg and below 58.3 mL/min/kg, respectively. This compound registered a Papp in data set [4] of 6.77 ×10⁻⁶ cm/s.
